Assays:
MCF7 = test: Antiproliferative activity against human MCF7 cells assessed as growth inhibition after 5 days by SRB assay; format: functional; conditions: MCF7, 120 h
Cytochrome P450 2C19 = Cytochrome P450 2C19 (Homo sapiens, UniProt P33261); test: Inhibition of CYP2C19 (unknown origin) using MFC as substrate after 30 mins by fluorescence assay; format: ADME
[1] = target: Serine/threonine-protein kinase PLK1 (Homo sapiens, UniProt P53350); test: Inhibition of PLK1 (unknown origin) by FRET-based homogeneous assay
MDA-MB-468 [2] = test: Cell cycle arrest in human MDA-MB-468 cells assessed as accumulation of 8N peaks at 0.25 uM after 2 days by FACS analysis; format: functional
MDA-MB-468 [3] = test: Cell cycle arrest in human MDA-MB-468 cells assessed as accumulation at G1 phase at 0.5 uM after 2 days by FACS analysis; format: functional
[4] = Permeability of the compound at pH 7.4 by PAMPA; format: ADME; conditions: read-out: permeability
[5] = target: T1, Serine/threonine-protein kinase PLK4 (Homo sapiens, UniProt O00444); test: Inhibition of N-terminal GST-tagged human PLK4 (1 to 391 amino acids) expressed in Escherichia coli using TMB as substrate after 30 mins by indirect ELISA assay
T1 sequence (O00444 whole entry): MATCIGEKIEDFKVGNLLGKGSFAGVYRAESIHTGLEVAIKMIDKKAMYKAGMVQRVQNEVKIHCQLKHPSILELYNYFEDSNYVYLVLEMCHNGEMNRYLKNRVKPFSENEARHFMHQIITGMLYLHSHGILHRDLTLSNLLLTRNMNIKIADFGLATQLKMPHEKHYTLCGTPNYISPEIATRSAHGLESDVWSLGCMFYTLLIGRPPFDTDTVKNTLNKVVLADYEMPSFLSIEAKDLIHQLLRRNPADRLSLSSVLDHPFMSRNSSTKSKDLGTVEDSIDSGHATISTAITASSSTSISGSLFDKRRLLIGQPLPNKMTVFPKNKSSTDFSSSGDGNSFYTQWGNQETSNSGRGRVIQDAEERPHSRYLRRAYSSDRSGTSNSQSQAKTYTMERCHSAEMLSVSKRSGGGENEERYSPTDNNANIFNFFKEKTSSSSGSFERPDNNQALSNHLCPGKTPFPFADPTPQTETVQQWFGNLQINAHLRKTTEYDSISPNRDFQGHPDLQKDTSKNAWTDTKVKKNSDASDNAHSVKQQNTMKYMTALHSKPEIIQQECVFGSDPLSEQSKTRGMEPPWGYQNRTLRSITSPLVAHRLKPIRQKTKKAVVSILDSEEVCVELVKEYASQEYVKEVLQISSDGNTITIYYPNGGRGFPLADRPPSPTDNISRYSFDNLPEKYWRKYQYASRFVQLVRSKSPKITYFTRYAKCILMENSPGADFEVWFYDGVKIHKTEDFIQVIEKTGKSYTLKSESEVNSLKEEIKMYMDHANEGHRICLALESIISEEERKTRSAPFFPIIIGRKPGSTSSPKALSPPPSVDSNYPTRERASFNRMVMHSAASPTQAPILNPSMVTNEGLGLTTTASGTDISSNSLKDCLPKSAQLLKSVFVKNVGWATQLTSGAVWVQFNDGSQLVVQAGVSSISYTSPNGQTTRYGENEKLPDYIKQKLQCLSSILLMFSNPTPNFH

Cytochrome P450 2C9 = Cytochrome P450 2C9 (Homo sapiens, UniProt P11712); test: Inhibition of CYP2C9 (unknown origin) using MFC as substrate after 45 mins by fluorescence assay; format: ADME
Cytochrome P450 2D6 = Cytochrome P450 2D6 (Homo sapiens, UniProt P10635); test: Inhibition of CYP2D6 (unknown origin) using AMMC as substrate after 30 mins by fluorescence assay; format: ADME
Cytochrome P450 3A4 = Cytochrome P450 3A4 (Homo sapiens, UniProt P08684); test: Inhibition of CYP3A4 (unknown origin) after 10 mins by fluorescence assay; format: ADME
MDA-MB-468 [6] = test: Cell cycle arrest in human MDA-MB-468 cells assessed as accumulation at G1 phase at 1 uM after 2 days by FACS analysis; format: functional
SK-BR-3 = test: Antiproliferative activity against human SKBR3 cells assessed as growth inhibition after 5 days by SRB assay; format: functional; conditions: SK-BR-3, 120 h
MDA-MB-468 [7] = test: Cell cycle arrest in human MDA-MB-468 cells assessed as accumulation at G1 phase at 0.25 uM after 2 days by FACS analysis; format: functional
MDA-MB-468 [8] = test: Cell cycle arrest in human MDA-MB-468 cells assessed as accumulation of 16N peaks at 0.5 uM after 2 days by FACS analysis; format: functional
MDA-MB-468 [9] = test: Antiproliferative activity against human MDA-MB-468 cells assessed as growth inhibition after 5 days by SRB assay; format: functional; conditions: MDA-MB-468, 120 h
MDA-MB-468 [10] = test: Cell cycle arrest in human MDA-MB-468 cells assessed as accumulation of 8N peaks at 1 uM after 2 days by FACS analysis; format: functional
MDA-MB-468 [11] = test: Cell cycle arrest in human MDA-MB-468 cells assessed as accumulation of 16N peaks at 1 uM after 2 days by FACS analysis; format: functional
MDA-MB-468 [12] = test: Cell cycle arrest in human MDA-MB-468 cells assessed as accumulation of 16N peaks at 0.25 uM after 2 days by FACS analysis; format: functional
Cytochrome P450 1A2 = target: T2, Cytochrome P450 1A2 (Homo sapiens, UniProt P05177); test: Inhibition of CYP1A2 (unknown origin) using CEC as substrate after 15 mins by fluorescence assay; format: ADME
T2 sequence (P05177 whole entry): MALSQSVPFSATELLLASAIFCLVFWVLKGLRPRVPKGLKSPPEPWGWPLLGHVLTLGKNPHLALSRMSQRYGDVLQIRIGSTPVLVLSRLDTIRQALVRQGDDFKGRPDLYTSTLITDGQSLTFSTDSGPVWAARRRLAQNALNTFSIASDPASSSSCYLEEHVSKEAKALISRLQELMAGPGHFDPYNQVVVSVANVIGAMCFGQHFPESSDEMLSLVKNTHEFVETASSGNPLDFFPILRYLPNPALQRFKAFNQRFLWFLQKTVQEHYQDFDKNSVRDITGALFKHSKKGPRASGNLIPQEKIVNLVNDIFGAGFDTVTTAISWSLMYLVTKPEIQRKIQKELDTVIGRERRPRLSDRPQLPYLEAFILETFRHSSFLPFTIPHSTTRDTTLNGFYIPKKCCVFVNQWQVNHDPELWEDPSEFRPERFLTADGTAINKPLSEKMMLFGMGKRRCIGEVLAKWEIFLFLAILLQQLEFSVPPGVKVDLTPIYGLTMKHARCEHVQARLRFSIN

[13] = target: Serine/threonine-protein kinase PLK2 (Homo sapiens, UniProt Q9NYY3); test: Inhibition of PLK2 (unknown origin) by FRET-based homogeneous assay
MDA-MB-231 = test: Antiproliferative activity against human MDA-MB-231 cells assessed as growth inhibition after 5 days by SRB assay; format: functional; conditions: MDA-MB-231, 120 h
MDA-MB-468 [14] = test: Cell cycle arrest in human MDA-MB-468 cells assessed as accumulation of 8N peaks at 0.5 uM after 2 days by FACS analysis; format: functional
HCC1954 = test: Antiproliferative activity against human HCC1954 cells assessed as growth inhibition after 5 days by SRB assay; format: functional; conditions: HCC1954, 120 h
[15] = target: Serine/threonine-protein kinase PLK3 (Homo sapiens, UniProt Q9H4B4); test: Inhibition of PLK3 (unknown origin) by FRET-based homogeneous assay
[16] = target: T1, Serine/threonine-protein kinase PLK4; test: Inhibition of human PLK4

Chain of Cytochrome P450 2D6 (P10635 whole entry): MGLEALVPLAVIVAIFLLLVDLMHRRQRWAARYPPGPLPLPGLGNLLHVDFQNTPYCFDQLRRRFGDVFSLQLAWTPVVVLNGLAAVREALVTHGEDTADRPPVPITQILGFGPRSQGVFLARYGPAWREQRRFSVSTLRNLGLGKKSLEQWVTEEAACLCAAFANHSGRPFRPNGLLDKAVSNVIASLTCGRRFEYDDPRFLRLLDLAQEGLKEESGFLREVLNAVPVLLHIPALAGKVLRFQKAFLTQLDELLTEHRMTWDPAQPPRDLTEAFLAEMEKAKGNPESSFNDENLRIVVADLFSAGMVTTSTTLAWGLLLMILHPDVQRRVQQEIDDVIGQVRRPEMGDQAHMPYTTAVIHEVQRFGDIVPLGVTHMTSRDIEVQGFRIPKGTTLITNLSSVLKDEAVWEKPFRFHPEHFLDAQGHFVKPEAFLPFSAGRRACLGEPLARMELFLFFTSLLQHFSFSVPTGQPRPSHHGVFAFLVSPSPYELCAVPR
Chain of Serine/threonine-protein kinase PLK2 (Q9NYY3 whole entry): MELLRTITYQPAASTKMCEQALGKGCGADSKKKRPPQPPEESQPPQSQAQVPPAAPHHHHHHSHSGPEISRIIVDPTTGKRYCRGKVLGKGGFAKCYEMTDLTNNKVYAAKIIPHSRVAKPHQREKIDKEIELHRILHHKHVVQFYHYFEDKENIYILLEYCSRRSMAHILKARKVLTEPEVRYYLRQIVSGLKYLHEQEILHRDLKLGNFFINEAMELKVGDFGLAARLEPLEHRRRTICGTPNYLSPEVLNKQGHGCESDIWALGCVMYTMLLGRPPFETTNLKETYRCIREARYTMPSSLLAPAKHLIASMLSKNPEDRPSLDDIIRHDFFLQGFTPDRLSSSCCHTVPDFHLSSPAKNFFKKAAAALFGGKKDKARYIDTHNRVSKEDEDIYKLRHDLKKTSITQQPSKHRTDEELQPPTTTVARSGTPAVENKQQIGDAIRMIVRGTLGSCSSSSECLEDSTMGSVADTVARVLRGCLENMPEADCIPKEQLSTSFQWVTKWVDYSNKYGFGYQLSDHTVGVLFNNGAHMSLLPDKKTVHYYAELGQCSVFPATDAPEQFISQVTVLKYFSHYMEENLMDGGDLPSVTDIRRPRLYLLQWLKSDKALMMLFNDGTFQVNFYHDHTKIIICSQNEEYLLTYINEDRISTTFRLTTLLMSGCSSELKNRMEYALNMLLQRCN
Chain of Serine/threonine-protein kinase PLK1 (P53350 whole entry): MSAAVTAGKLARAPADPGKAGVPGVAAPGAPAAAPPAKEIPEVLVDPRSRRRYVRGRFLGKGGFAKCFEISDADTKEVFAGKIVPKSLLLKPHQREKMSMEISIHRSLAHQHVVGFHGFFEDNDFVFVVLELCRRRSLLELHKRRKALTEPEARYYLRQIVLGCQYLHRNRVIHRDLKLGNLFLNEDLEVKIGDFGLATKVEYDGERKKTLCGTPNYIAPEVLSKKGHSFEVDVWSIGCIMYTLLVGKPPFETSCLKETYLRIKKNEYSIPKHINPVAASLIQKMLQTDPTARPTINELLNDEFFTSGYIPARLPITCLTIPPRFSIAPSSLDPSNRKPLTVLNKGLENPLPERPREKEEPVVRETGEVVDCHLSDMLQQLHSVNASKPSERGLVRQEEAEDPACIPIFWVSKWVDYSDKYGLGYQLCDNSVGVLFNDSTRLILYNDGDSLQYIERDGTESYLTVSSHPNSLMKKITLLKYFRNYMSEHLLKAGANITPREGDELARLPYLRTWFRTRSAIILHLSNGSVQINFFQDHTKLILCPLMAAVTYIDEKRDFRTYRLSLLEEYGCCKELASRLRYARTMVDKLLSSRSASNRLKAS
Chain of Cytochrome P450 3A4 (P08684 whole entry): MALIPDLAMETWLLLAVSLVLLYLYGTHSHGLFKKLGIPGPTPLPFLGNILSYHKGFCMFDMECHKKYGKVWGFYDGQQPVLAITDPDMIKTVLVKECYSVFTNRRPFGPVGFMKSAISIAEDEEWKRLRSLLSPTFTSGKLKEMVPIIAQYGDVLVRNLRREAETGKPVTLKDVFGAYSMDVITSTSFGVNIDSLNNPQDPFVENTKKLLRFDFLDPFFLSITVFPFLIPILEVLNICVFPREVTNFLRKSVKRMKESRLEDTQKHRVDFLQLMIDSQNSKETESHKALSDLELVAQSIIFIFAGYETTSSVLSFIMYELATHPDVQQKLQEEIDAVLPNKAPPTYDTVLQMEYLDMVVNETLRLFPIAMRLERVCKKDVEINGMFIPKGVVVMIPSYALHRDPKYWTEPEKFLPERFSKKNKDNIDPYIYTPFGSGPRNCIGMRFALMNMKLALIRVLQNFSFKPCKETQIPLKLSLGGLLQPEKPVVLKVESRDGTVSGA
Chain of Cytochrome P450 2C9 (P11712 whole entry): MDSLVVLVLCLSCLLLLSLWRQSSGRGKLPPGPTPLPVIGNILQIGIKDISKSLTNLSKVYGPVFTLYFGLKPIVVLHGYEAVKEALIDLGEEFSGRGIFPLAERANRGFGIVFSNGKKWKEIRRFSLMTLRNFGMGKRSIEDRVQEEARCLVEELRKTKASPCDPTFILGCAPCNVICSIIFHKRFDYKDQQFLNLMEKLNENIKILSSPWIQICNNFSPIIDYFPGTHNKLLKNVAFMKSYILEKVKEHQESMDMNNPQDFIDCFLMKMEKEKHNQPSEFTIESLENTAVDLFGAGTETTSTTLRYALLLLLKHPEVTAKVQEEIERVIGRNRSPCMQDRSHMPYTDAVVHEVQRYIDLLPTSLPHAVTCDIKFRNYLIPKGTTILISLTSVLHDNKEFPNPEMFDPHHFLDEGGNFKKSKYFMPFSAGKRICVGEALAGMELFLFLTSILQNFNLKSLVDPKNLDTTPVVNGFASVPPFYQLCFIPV
Chain of Serine/threonine-protein kinase PLK3 (Q9H4B4 whole entry): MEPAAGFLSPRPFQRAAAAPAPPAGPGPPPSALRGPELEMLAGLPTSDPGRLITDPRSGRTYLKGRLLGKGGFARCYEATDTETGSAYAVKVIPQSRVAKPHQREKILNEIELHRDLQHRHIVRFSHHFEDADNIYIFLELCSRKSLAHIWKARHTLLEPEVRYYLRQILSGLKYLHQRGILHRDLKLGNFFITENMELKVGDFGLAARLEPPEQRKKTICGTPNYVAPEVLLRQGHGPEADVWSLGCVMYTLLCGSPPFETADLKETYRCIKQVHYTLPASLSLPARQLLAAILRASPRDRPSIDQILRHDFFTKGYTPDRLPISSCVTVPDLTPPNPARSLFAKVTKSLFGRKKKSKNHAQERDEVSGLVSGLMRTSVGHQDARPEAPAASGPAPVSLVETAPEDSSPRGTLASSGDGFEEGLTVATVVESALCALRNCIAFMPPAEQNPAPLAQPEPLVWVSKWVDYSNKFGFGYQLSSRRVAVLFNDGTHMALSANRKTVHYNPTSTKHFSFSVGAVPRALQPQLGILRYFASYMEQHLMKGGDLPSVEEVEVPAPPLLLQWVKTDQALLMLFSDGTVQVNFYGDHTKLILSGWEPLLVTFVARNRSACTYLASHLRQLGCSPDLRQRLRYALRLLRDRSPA
Chain of Cytochrome P450 2C19 (P33261 whole entry): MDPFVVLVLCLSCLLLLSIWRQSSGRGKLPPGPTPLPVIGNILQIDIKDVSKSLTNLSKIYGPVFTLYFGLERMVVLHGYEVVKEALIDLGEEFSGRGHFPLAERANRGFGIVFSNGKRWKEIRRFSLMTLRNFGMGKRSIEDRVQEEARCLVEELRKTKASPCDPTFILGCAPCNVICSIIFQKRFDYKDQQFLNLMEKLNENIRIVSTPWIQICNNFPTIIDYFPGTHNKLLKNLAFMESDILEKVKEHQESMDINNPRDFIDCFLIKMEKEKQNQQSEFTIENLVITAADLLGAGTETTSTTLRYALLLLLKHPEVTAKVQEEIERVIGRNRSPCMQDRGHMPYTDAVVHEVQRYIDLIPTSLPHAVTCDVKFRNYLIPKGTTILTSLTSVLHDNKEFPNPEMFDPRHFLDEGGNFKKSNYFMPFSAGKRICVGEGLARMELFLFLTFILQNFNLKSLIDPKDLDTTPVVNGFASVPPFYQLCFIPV

| Structure (SMILES) | GI50 (MCF7) [nM] | IC50 (Cytochrome P450 2C19) [nM] | IC50 [1] [nM] | Papp [4] [×10⁻⁶ cm/s] | IC50 [5] [nM] | IC50 (Cytochrome P450 2C9) [nM] | IC50 (Cytochrome P450 2D6) [nM] | IC50 (Cytochrome P450 3A4) [nM] | GI50 (SK-BR-3) [nM] | GI50 (MDA-MB-468 [9]) [nM] | IC50 (Cytochrome P450 1A2) [nM] | IC50 [13] [nM] | GI50 (MDA-MB-231) [nM] | GI50 (HCC1954) [nM] | IC50 [15] [nM] | Ki [16] [nM] | further results |
| --- | --- | --- | --- | --- | --- | --- | --- | --- | --- | --- | --- | --- | --- | --- | --- | --- | --- |
| O=C1Nc2ccccc2/C1=C\c1ccc2c(/C=C/c3ccncc3)n[nH]c2c1 | 160 | 130 | > 10000 | 197 | 5.4 | 20 | > 10000 | 2700 | 25000 | 310 | > 10000 | > 10000 | 19000 | 930 | > 10000 |  | Activity (MDA-MB-468 [2]): 11.85%; Activity (MDA-MB-468 [3]): 20.8%; Activity (MDA-MB-468 [6]): 24.8%; Activity (MDA-MB-468 [7]): 11.2%; Activity (MDA-MB-468 [8]): 6%; Activity (MDA-MB-468 [10]): 32.5%; Activity (MDA-MB-468 [11]): 5.2%; Activity (MDA-MB-468 [12]): 1.7%; Activity (MDA-MB-468 [14]): 34.3% |
| COCCOc1ccc2cc1OCC(=O)N(C)CCCN(C)Cc1c[nH]c3ncnc(c13)N2 |  |  |  |  |  |  |  |  |  |  |  |  |  |  |  | 25 |  |
| CN(C)Cc1ccc(/C=C/c2n[nH]c3cc(/C=C4/C(=O)Nc5ccccc54)ccc23)cc1 | 10 | 1000 | > 10000 | 276 | 2 | 1300 | 9000 | 10000 | 1900 | 10 | > 10000 | > 10000 | 2 | 480 | > 10000 |  |  |
| COc1cc2c(cc1F)C(c1ccccc1Cl)=Nc1c(n[nH]c1C)N2 [RG-1530] |  |  |  |  |  |  |  |  |  |  |  |  |  |  |  | 11 |  |

Reference: ChEMBL document CHEMBL2406977, “The discovery of PLK4 inhibitors: (E)-3-((1H-Indazol-6-yl)methylene)indolin-2-ones as novel antiproliferative agents” (J Med Chem, 2013)
